Data from patent publication US20110020366A1, “USE OF BENZOPHENONE DERIVATIVE OR SALT THEREOF AND TNF ALPHA INHIBITOR IN COMBINATION AND PHARMACEUTICAL COMPOSITION CONTAINING THE DERIVATIVE OR SALT THEREOF AND THE INHIBITOR” (TOYAMA CHEMICAL CO., LTD., priority 2008, published 2011).

System: Mouse Type II Collagen-Induced Arthritis
Test: Mouse type II collagen-induced arthritis, arthritis score / inhibition rate
Format: in vivo
Conditions: compound A 30 mg/kg orally once a day for 10 days; DBA/1 J mice; day following the final administration
Description: Eight-week-old male DBA/1 J mice (9 or 10 mice per group; Charles River Laboratories Japan) were used. A 2 mg/mL bovine type II collagen dissolved in a 0.1 mol/L acetic acid solution (Koken Co., Ltd.) was mixed with an equal volume of Freund's complete adjuvant (BD Diagnostic Systems) to prepare an emulsion. The emulsion (0.2 mL) was intradermally injected into the hip of each mouse. Twenty-one days after the primary immunization, the same treatment was carried out (secondary sensitization), so that type II collagen arthritis was induced.
Compound A was dissolved in a 2-fold molar amount of sodium hydroxide solution, and a 3-fold weight of polyvinylpyrrolidone was then added to the solution, followed by dilution with distilled water. The concentration of compound A in a compound A (30 mg/kg)-dosing solution was adjusted to be 3 mg/mL. The concentration of compound A in compound A (3 mg/kg)-dosing solution for combined administration was adjusted to be 0.3 mg/mL. Each dosing solution was orally administered to the mice.
The anti-TNFα antibody was dissolved in phosphate buffered saline. The concentration of the anti-TNFα antibody in the anti-TNFα antibody (250 μg/mouse)-dosing solution was adjusted to be 1.25 mg/mL. […]
The knuckle portion and the articulations of wrist and tarsus portions of the four paws of each mouse were evaluated using the following 4 scores. […]

Compound: O=C(O)CCc1cc(C(=O)c2ccc(OC3CCCC3)cc2O)ccc1OCc1ccc2c(O)noc2c1 [Compound A, 3-(5-(4-(cyclopentyloxy)-2-hydroxybenzoyl)-2-((3-hydroxy-1,2-benzisoxazol-6-yl)methoxy)phenyl)propionic acid]
- Arthritis inhibition rate (%): 23%
